Experimental data as given in patent US20040171795A1, “Novel peptides” (priority 2000, published 2004).

What was measured:
plasmid (pUC119) = test: Binding ability to plasmid (electrophoresis); details: charge ratio (+/−ratio) of 3
Procedure: The plasmid prepared by the procedure described in Example 7 (pUC119; final concentration, 20 μg/mL) and the peptides prepared by the procedure described in Examples 1 to 3 were mixed in 20 mM Tris HCl buffer (pH=7.2) containing 150 mM NaCl at a charge ratio (+/−ratio) of 0 to 3, and the mixture was allowed to stand at 37° C. for 30 minutes. Electrophoresis was then conducted on 1% agarose gel to thereby determine the binding of the plasmid and the peptide.
The +/−ratio (charge ratio) indicated in FIG. 11 is the ratio of the number (+) of the positively-charged groups in the peptide to the number (−) of negatively-charged groups in the plasmid. As evident in FIG. 11, the amount of plasmid that became bound to the peptide increased with the increase in the charge ratio (+/−ratio), and the plasmid was fully bound to the peptide at a charge ratio (+/−ratio) of 3. The peptides of SEQ ID NO:2 to SEQ ID NO:24 were also found to bind at a charge ratio (+/−ratio) of 3.

[1] = tested on: cell (Vero, T24 or A549 of Example 9; not given); test: Nucleic acid-introducing ability, luciferase-expressing plasmid (procedure of Example 9); format: cell-based
In short: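 Cells pre-cultured 24 h, then exposed 5 h in opti-MEM to luciferase plasmid at 1 μg/mL with peptide at 1.25, 2.5 or 5 μM, then grown 24 h more at 37 °C. Lysate luciferase counts normalised to Bradford protein (cps/mg protein); highest of the three peptide levels taken as gene-introducing ability.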

Vero cell = test: Introduction of FITC-labeled oligonucleotide, fluorescence microscopy; format: cell-based, monkey; details: 300 nM FITC-labeled oligonucleotide, 2.5 μM peptide
Procedure: Vero cell was inoculated in the well of a chamber slide (Lab-Tek II chamber slide, size 4 well, manufactured by NALGEN NUNC) at a rate of 1×10^5 cells/well, and the cells were cultivated in DMEM supplemented with 10% FBS in 5% CO2 atmosphere at 37° C. for 24 hours. After removing the medium, opti-MEM containing 300 nM FITC-labeled oligonucleotide prepared in Example 6 and 2.5 μM of the peptide of SEQ ID NO:1 prepared in Example 1 was added, and the cultivation was continued for 4 hours. The medium was replaced with DMEM supplemented with 10% FBS, and the cultivation was continued in 5% CO2 atmosphere at 37° C. for another 24 hours. After washing the cell with PBS, the cells were fixed by using PBS containing 4% paraformaldehyde, and accumulation of FITC-labeled oligonucleotide in the cell nucleus was confirmed by using a fluorescence microscope (AH-3, manufactured by Olympus). […] On the other hand, accumulation of FITC-labeled oligonucleotide in the cell was not confirmed in the absence of the peptide of SEQ ID NO:1.

[2] = Affinity by surface plasmon resonance (Biacore 2000), flow cell 2; format: binding; details: SPR, HPA chip, 0.1 mg/mL BSA; compared with flow cell 1
Procedure: The specific affinity of the peptide for phosphatidyl serine was evaluated by means of surface plasmon resonance (SPR) using Biacore 2000 (manufactured by Biacore). To be more specific, phosphatidyl choline was immobilized on flow cell 1, and 50% of phosphatidyl serine and 50% of phosphatidyl choline were immobilized on flow cell 2 of HPA chip (manufactured by Biacore), and ability of the peptide to bind to the phospholipid was evaluated in the presence of 0.1 mg/mL BSA to thereby evaluate the affinity.

SEQ ID NO: 1: peptide having the amino acid sequence of SEQ ID NO:1, made by solid phase synthesis (TRYLRIHPRSWVHQIALRLRYLRIHPRSWVHQIALRS; synthetic peptide using an automatic peptide synthesizer)
binding of plasmid to the peptide (plasmid (pUC119)): fully bound | Nucleic acid-introducing ability ([1]; class of fluorescent count per 1 mg of protein per 1 second, highest of peptide 1.25, 2.5, 5 μM, plasmid 1 μg/mL): 3+ (1,000,000 to less than 10,000,000) | ability of introducing the nucleic acid into a cell ([1]; procedure of Example 9, luciferase-expressing plasmid): found to have the ability of introducing the nucleic acid into a cell | accumulation of FITC-labeled oligonucleotide in the cell nucleus (Vero cell): FITC-labeled oligonucleotide was accumulated in the cell nucleus | binding to flow cell 2 (50% phosphatidyl serine, 50% phosphatidyl choline) [2]: stronger
